According to patent US8735149B2, “Motor neurons developed from stem cells” (Hadasit Medical Research Services & Development Limited, priority 2008, dated 2014):

How the values were obtained:
Type in all cases: cell-based, human
[1] = system: hESC-derived neural precursors; assay: Immunostaining for HB9 after 1 week RA, 3 weeks treatment and 4-6 weeks maturation in MNM; conditions: RA 1 week, then 3 weeks treatment, then maturation 4-6 weeks in MNM
Protocol: (§1) Alternatively, the spheres were cultured in the same medium supplemented with 1 μM RA (Sigma) for 1 week. Followed by further culturing the spheres in neurobasal medium (Invitrogen) supplemented with 2 mM L-glutamine (Invitrogen), 50 units/ml penicillin (Invitrogen), 50 μg/ml streptomycin (Invitrogen), 1% non-essential amino-acids (Invitrogen), N2 (Invitrogen), 1 μM db-cAMP (Sigma) and 1 μM RA (Sigma), or 0.5 μM Pur (Merck), or combination of RA and Pur, for 2-3 weeks.
(§2) The spheres were then further cultured in the same neurobasal medium supplemented with 2 mM L-glutamine, 50 units/ml penicillin, 50 μg/ml streptomycin, 1% non-essential amino-acids, 1% N2 (all from Invitrogen), 1 μM db-cAMP and 10 ng/ml of BDNF, GDNF and IGF-I (all from Peprotech). This medium was designated as motor neuron medium (MNM). The clusters could be cultured in suspension in this medium for prolonged periods (5 months). At various time points along this period the cells were plated on 10 μg/ml Poly-D-Lysine (Sigma) and 5 μg/ml laminin (Sigma) for terminal differentiation in the presence or absence of the γ-secretase inhibitor [N-(3,5-Difluorophenacetyl)-L-alanyl]-S-phenylglycine t-butyl ester (DAPT; 1 μM, Sigma).
The following primary antibodies were used: polyclonal rabbit anti Isl1 (1:750, Abeam), mouse anti HB9 (1:50, DSHB), polyclonal goat anti CHAT (1:200, R&D), and goat anti olig2 (1:75, R&D). […]

[2] = system: hESC-derived neural spheres; assay: Olig-2, HB9 and CHAT expression after caudalization, ventralization and maturation in MNM
Protocol: as §1, §2
(§3) The following primary antibodies were used: polyclonal rabbit anti Isl1 (1:750, Abeam), mouse anti HB9 (1:50, DSHB), polyclonal goat anti CHAT (1:200, R&D), and goat anti olig2 (1:75, R&D).
(§4) The following secondary antibodies: goat anti-rabbit conjugated to Cy-3 (1:1000, Jackson), goat anti-mouse conjugated to Cy-3 (1:500, Jackson), donkey anti goat conjugated to rhodamin (1:300, Jackson), Texas red or Alexa 488-conjugated goat anti-mouse IgM (1:100, Jackson), goat anti-rabbit IgG (1:100, Molecular Probes), goat anti-mouse IgG (1:100, Molecular Probes) or donkey anti-goat IgG (1:250, Jackson) were used as secondary antibodies, where appropriate.
In a similar set of experiments, after initial early neural induction in the presence of FGF2, the spheres were induced to take a caudal fate by 7 days treatment with RA. […]

[3] = system: hESC-derived neural precursors; assay: RT-PCR of Olig2, Ngn2 and HB9 transcripts after early neural induction and 2-3 weeks treatment
Protocol: (§5) To develop spheres enriched for neural precursors, hESC colonies were removed intact from the feeders, 6 days after passage, with collagenase IV. They were cultured in low adherent culture dishes (HydroCell) in DMEM/F12 (1:1) basal medium (Invitrogen), supplemented with 2% B27, 2 mM glutamine, 50 units/ml penicillin, 50 μg/ml streptomycin (all from Invitrogen), and 20 ng/ml rh-FGF-2 (Peprotech). In some experiments the medium was also supplemented with noggin 600-700 ng/ml (both from R&D) for 14-16 days.
The medium was further supplemented with 1 μM retinoic acid (“RA”; Sigma) or 0.5 μM purmorphamine (“Pur”; a hedgehog agonist; Merck), or combination of Pur and RA, for 3 weeks.
Total RNA was extracted from free-floating clusters after 2 and 3 weeks of treatment with RA, Pur or both. Total RNA was isolated using TRI-reagent (Sigma) followed by treatment with RNase-free DNase (Ambion). cDNA synthesis was carried out using Moloney murine leukemia virus (M-MLV) reverse transcriptase and random primers, according to the manufacturers' instructions (Promega). To analyze relative expression of different mRNAs, the amount of cDNA was normalized based on the signal from GAPDH mRNA. PCR was carried out using standard protocols with Taq DNA Polymerase (Promega). Amplification conditions were as follows: denaturation at 94° C. for 30 seconds, annealing at 55° C. for 30 seconds, and extension at 72° C. for 45 seconds. The number of cycles varied between 30 and 40, depending on particular mRNA abundance. Primer sequences (forward and reverse 5′-3′) were as shown in Table 1 (sequence identification number (SEQ ID NO.) according to the Sequence Listing is also provided):
Following this initial induction of early neural differentiation, the role of purmorphamine (Pur) and retinoic acid (RA) in further specification towards a caudal and ventral fate was examined. The neural precursors were further cultured 2-3 weeks with Pur, RA, or the combination of RA & Pur as well as with FGF2 as a control. Caudalization and ventralization were studied by analyzing the expression of Olig-2, Ngn2 and HB9 transcripts (FIGS. 2A, 2B and 2C). […] Without being bound by theory, induction of expression of these transcription factors by RA after 3 weeks (lane 6 in FIGS. 2A and 2C) may be related to RA-mediated induction of endogenous SHH gene expression.

[4] = system: hESC-derived neural progenitors with caudal and ventral specification; assay: Terminal motor neuron differentiation of plated spheres in the presence of DAPT (HB9, CHAT immunostaining)
Protocol: as §2, §3, §4
To further enhance the motor neuron differentiation, caudalization and ventralization were followed by blocking Notch signaling with the γ-secretase inhibitor DAPT. After 2-3 weeks of maturation in MNM, the spheres were plated on laminin and terminally differentiated in the presence of DAPT for 7-10 days.

[5] = system: hESC-derived neural precursors; assay: Immunostaining for Olig-2 and Isl-1 after early neural induction and 3 weeks treatment; conditions: treatment for 3 weeks
Protocol: To develop spheres enriched for neural precursors, hESC colonies were removed intact from the feeders, 6 days after passage, with collagenase IV. They were cultured in low adherent culture dishes (HydroCell) in DMEM/F12 (1:1) basal medium (Invitrogen), supplemented with 2% B27, 2 mM glutamine, 50 units/ml penicillin, 50 μg/ml streptomycin (all from Invitrogen), and 20 ng/ml rh-FGF-2 (Peprotech). In some experiments the medium was also supplemented with noggin 600-700 ng/ml (both from R&D) for 14-16 days. […] The medium was further supplemented with 1 μM retinoic acid (“RA”; Sigma) or 0.5 μM purmorphamine (“Pur”; a hedgehog agonist; Merck), or combination of Pur and RA, for 3 weeks. The following primary antibodies were used: polyclonal rabbit anti Isl1 (1:750, Abeam), mouse anti HB9 (1:50, DSHB), polyclonal goat anti CHAT (1:200, R&D), and goat anti olig2 (1:75, R&D). The following secondary antibodies: goat anti-rabbit conjugated to Cy-3 (1:1000, Jackson), goat anti-mouse conjugated to Cy-3 (1:500, Jackson), donkey anti goat conjugated to rhodamin (1:300, Jackson), Texas red or Alexa 488-conjugated goat anti-mouse IgM (1:100, Jackson), goat anti-rabbit IgG (1:100, Molecular Probes), goat anti-mouse IgG (1:100, Molecular Probes) or donkey anti-goat IgG (1:250, Jackson) were used as secondary antibodies, where appropriate.

hESC clusters = assay: Early neural induction of hESC clusters (PSA-NCAM expression); conditions: chemically defined medium with FGF2 with or without noggin, two weeks
Protocol: as §5
To induce the differentiation of hESCs towards motor neurons, hESC clusters were initially cultured in chemically defined medium supplemented with FGF2 with or without noggin for two weeks. At the end of this culture period the clusters acquired round morphology typical of neural spheres.

[6] = RA 7 days, Pur with or without RA 2-3 weeks, 4 weeks maturation in MNM, plated on laminin, no DAPT
[7] = DAPT 1 μM for 7-10 days after 2-3 weeks maturation in MNM, plated on laminin

| Molecule | cells expressing HB9 protein [1] | cells within the spheres expressing Olig-2 ([2]; 7 days RA, then Pur in the presence or absence of RA for 2-3 weeks) | cells expressing CHAT [2, 6] | cells expressing HB9 [2, 6] | expression of HB9 transcripts ([3]; after 2 weeks of treatment) | expression of Olig-2 transcripts ([3]; after 2 weeks of treatment) | expression of HB9 transcripts ([3]; after 3 weeks of treatment) | expression of Olig-2 transcripts ([3]; after 3 weeks of treatment) | increase of percentage of HB9+ cells [4, 7] | percentage of HB9+ cells [4, 7] | neurite outgrowth and branching from CHAT expressing cells ([4]; DAPT during terminal differentiation) | cells expressing Isl-1 [5] | cells expressing Olig-2 [5] | neural precursor cells expressing PSA-NCAM within the clusters (hESC clusters) | expression of Ngn2 transcripts ([3]; after 2 weeks of treatment) | expression of Ngn2 transcripts ([3]; after 3 weeks of treatment) |
| --- | --- | --- | --- | --- | --- | --- | --- | --- | --- | --- | --- | --- | --- | --- | --- | --- |
| c1ccc2c(Oc3nc(Nc4ccc(N5CCOCC5)cc4)c4ncn(C5CCCCC5)c4n3)cccc2c1 [Pur, purmorphamine] | 66 % of total cells | 23-54 % of the cells | 20-50 % of the cells | 20-50 % of the cells | induced the expression | induced the expression | induced the expression | induced the expression |  |  |  |  |  |  |  |  |
| C[C@H](NC(=O)Cc1cc(F)cc(F)c1)C(=O)N[C@H](C(=O)OC(C)(C)C)c1ccccc1 [DAPT, [N-(3,5-Difluorophenacetyl)-L-alanyl]-S-phenylglycine t-butyl ester] |  |  |  |  |  |  |  |  | 1.5-2 folds | 40-70 % of total cells | significantly augmented |  |  |  |  |  |
| FGF2: basic fibroblast growth factor, used for early neural induction and as control treatment | not expressed |  |  |  | did not induce the expression | did not induce the expression | did not induce the expression | did not induce the expression |  |  |  | not expressed | did not induce the expression | highly enriched | did not induce the expression | did not induce the expression |
